Assay results taken from ChEMBL document CHEMBL5543174, “A Nonbactericidal Anionic Antimicrobial Peptide Provides Prophylactic and Therapeutic Efficacies against Bacterial Infections in Mice by Immunomodulatory-Antithrombotic Duality” (J Med Chem, 2024).
Active and inactive are the calls of the source. The calls are words filed in the database; no cut-off is given here.

Experiments:
Staphylococcus aureus [1] = assay: Antibacterial activity against Staphylococcus aureus ATCC 25923 infected in C57BL/6 mouse assessed as reduction in IL-1beta level in peritoneal fluid at 10 mg/kg,ip administrated 5 hrs after bacterial infection measured after 24 hrs by ELISA; format: functional, organism-based; details: time 19.0 hrs
Escherichia coli [2] = assay: Antibacterial activity against Carbapenem-resistant Escherichia coli infected in C57BL/6 mouse with clodronate liposome-induced monocyte depletion model assessed as decrease in bacterial burden in peritoneal cavity at 10 mg/kg,ip administrated 5 hrs after bacterial infection measured after 24 hrs; format: functional, organism-based; details: time 19.0 hrs
Candida albicans = assay: Antimicrobial activity against Candida albicans ATCC 2002 assessed as reduction in microbial colony forming unit at 200 ug/ml incubated for 1 to 4 hrs by time-kill kinetics based analysis; format: functional, organism-based; details: dose 200.0 µg/ml, time 1-4 hrs
Staphylococcus aureus [3] = assay: Antibacterial activity against Methicillin-resistant Staphylococcus aureus infected in C57BL/6 mouse assessed as reduction in IL-6 level in serum at 10 mg/kg,ip pre-administrated 5 hrs before bacterial infection measured after 24 hrs by ELISA; format: functional, organism-based; details: time 29.0 hrs
Escherichia coli [4] = assay: Antibacterial activity against Escherichia coli ATCC 25922 infected in C57BL/6 mouse assessed as reduction in IL-6 level in peritoneal fluid at 10 mg/kg,ip pre-administrated 5 hrs before bacterial infection measured after 24 hrs by ELISA; format: functional, organism-based; details: time 29.0 hrs
Staphylococcus aureus [5] = assay: Antibacterial activity against Staphylococcus aureus ATCC 25923 infected in C57BL/6 mouse assessed as reduction in bacterial load at 10 mg/kg,ip administrated 5 hrs after bacterial infection; format: functional, organism-based
Peritoneal macrophage [6] = assay: Immunomodulatory activity in mouse Peritoneal macrophage assessed as decrease in LTA-induced IL-1beta production at 25 to 100 ug/ml incubated for 6 hrs by ELISA; format: functional, cell-based; details: dose 25-100 µg/ml
Escherichia coli [7] = assay: Antibacterial activity against Carbapenem-resistant Escherichia coli infected in C57BL/6 mouse assessed as reduction in inflammatory injury in lung at 10 mg/kg,ip pre-administrated 5 hrs before bacterial infection measured after 24 hrs by hematoxylin and eosin staining based analysis; format: functional, organism-based; details: time 29.0 hrs
Peritoneal macrophage [8] = assay: Induction of chemotaxis in mouse Peritoneal macrophage assessed as upregulation of MCP-1 expression incubated for 6 hrs by ELISA; format: functional, cell-based
Peritoneal macrophage [9] = assay: Immunoregulatory activity in mouse Peritoneal macrophage assessed as upregulation of p38 phosphorylation incubated for 1 hr by Western blotting analysis; format: functional, cell-based
Mus musculus [10] = assay: Anticoagulation activity in mouse infected with Methicillin-resistant Staphylococcus aureus assessed as increase in plasma TFPI expression at 10 mg/kg,ip administrated 5 hrs after bacterial infection measured after 24 hrs by ELISA; format: functional, organism-based; details: time 19.0 hrs
Staphylococcus aureus [11] = assay: Antimicrobial activity against Methicillin-resistant Staphylococcus aureus assessed as reduction in metabolic activity at < 200 ug/ml incubated for 1 to 4 hrs by CCK-8 assay; format: functional, organism-based; details: dose < 200.0 µg/ml, time 1-4 hrs
Peritoneal macrophage [12] = assay: Immunoregulatory activity in mouse Peritoneal macrophage assessed as upregulation of ERK phosphorylation incubated for 1 hr by Western blotting analysis; format: functional, cell-based
Staphylococcus aureus [13] = assay: Antibacterial activity against Staphylococcus aureus ATCC 25923 infected in C57BL/6 mouse assessed as reduction in TNF-alpha level in serum at 10 mg/kg,ip pre-administrated 5 hrs before bacterial infection measured after 24 hrs by ELISA; format: functional, organism-based; details: time 29.0 hrs
[14] = system: Peritoneal macrophage cell; assay: Induction of chemotaxis in mouse Peritoneal macrophage assessed as upregulation of CXCL1 production at 100 ug/ml preincubated with MTS510 followed by compound addition by ELISA; format: functional, cell-based; details: dose 100.0 µg/ml
Mus musculus [15] = assay: Inhibition of fibrin formation in mouse infected with Methicillin-resistant Staphylococcus aureus assessed as reduction in fibrin deposition in lung at 10 mg/kg,ip administrated 5 hrs after bacterial infection measured after 24 hrs by immunohistochemical analysis; format: functional, organism-based; details: time 19.0 hrs
Neutrophil = assay: Induction of chemotaxis in mouse bone marrow derived neutrophil assessed as increase in neutrophil migration at 100 ug/ml preincubated with PTX for 30 mins followed by compound addition measured after 8 hrs by crystal violet staining based indirect transwell assay; format: functional, cell-based; details: dose 100.0 µg/ml

## CC[C@H](C)[C@H](NC(=O)[C@@H]1CSSC[C@H](NC(=O)[C@H](CCC(=O)O)NC(=O)[C@@H](NC(=O)[C@H](CCCCN)NC(=O)[C@H](Cc2c[nH]cn2)NC(=O)[C@@H](NC(=O)[C@H](CCCCN)NC(=O)[C@H](CCC(=O)O)NC(=O)[C@H](C)NC(=O)[C@H](CCC(=O)O)NC(=O)[C@H](CCC(=O)O)NC(=O)[C@H](CCC(=O)O)NC(=O)[C@H](C)N)[C@@H](C)O)[C@@H](C)O)C(=O)N[C@@H](CC(C)C)C(=O)N[C@@H](CCC(=O)O)C(=O)N1)C(=O)N[C@@H](Cc1ccccc1)C(=O)N[C@H](C(=O)N[C@@H](CC(C)C)C(=O)N[C@@H](CC(C)C)C(=O)N1CCC[C@H]1C(=O)N1CCC[C@@H]1C(=O)N[C@H](C)C(=O)O)[C@@H](C)O
Staphylococcus aureus [1]
  Activity: Active
Escherichia coli [2]
  Activity: inactive
Candida albicans
  Activity: inactive
Staphylococcus aureus [3]
  Activity: Active
Escherichia coli [4]
  Activity: Active
Staphylococcus aureus [5]
  Activity: Active
Peritoneal macrophage [6]
  Activity: inactive
Escherichia coli [7]
  Activity: Active
Peritoneal macrophage [8]
  Activity: Dose-Dependent Effect
Peritoneal macrophage [9]
  Activity: Dose-Dependent Effect
Mus musculus [10]
  Activity: Active
Staphylococcus aureus [11]
  Activity: inactive
Peritoneal macrophage [12]
  Activity: Dose-Dependent Effect
Staphylococcus aureus [13]
  Activity: Active
[14]
  Activity: Active
Mus musculus [15]
  inhibition: Active
Neutrophil
  Activity: inactive
